The values that follow come from ChEMBL document CHEMBL4765340, “Novel potent antiplatelet thrombotic agent derived from biguanide for ischemic stroke” (Eur J Med Chem, 2020).

SMILES strings stand for the structures.

One series has as its system Mus musculus. Nature of the series: Antithrombotic activity in collagen-epinephrine induced pulmonary thromboembolism mouse model assessed as protection rate at 200 mg/kg, ig twice a day for 7 days followed by administered collagen-epinephrine relative to control. The class given is functional. The note with it: time 7 day.
The nature of series [1]: Inhibition of thrombin-induced platelet aggregation in mouse platelet isolated from C57BL/6J mouse treated at 200 mg/kg, ig twice a day for 7 days by lumi-aggregometer. Format: functional. The note with it: po, 168 h, time 7 day.
The nature of series [2]: Cmax in Sprague-Dawley rat at 200 mg/kg, po compound dissolved in DMSO measured after 2 hr by HPLC-MS/MS analysis. On the set-up: route oral, time 2 hrs, dose 200 mg/kg. The note with it: in vivo. The class given is ADME, organism-based.
Series [3] is described as follows: Apparent clearance during terminal phase in Sprague-Dawley rat at 200 mg/kg, po measured by HPLC-MS/MS analysis. Format: ADME, organism-based. The conditions noted are these: in vivo.
Series [4] is described as follows: Half life in Sprague-Dawley rat at 200 mg/kg, po measured by HPLC-MS/MS analysis. The conditions noted are these: in vivo. Format: ADME, organism-based.
Series [5] is described as follows: AUC (0 to infinity) in Sprague-Dawley rat at 200 mg/kg, po measured by HPLC-MS/MS analysis. Format: ADME, organism-based. On the set-up: time infinity, route oral, dose 200 mg/kg. The note with it: in vivo.

On to `CN(C)C(=N)NC(=N)NS(C)(=O)=O`, for which, in the series with Mus musculus, the Activity is 50%. Further, testing at 200 mg/kg in series [1] gave an inhibition in vivo of 47.5%.

As to `CN(C)C(=N)NC(=N)/N=C/c1ccc(C#N)cc1`, in the series with Mus musculus, the Activity is on record as 10%. In addition, the inhibition in vivo – broadly, the change of the read-out against control, counted positive when it falls – at 200 mg/kg in series [1] is 9.5%.

`CN(C)C(=N)NC(=N)NS(=O)(=O)C(Cl)(Cl)Cl`: the Activity with Mus musculus came out at 40%. Further, the inhibition in vivo at 200 mg/kg in series [1] is 34.9%.

On to `CN(C)C(=N)NC(=N)NS(=O)(=O)C1CCCCC1`, for which the Activity with Mus musculus stood at 30%. For the same compound, in series [1], the inhibition in vivo at 200 mg/kg turned out to be 19.5%.

Turning to `CC(=O)Oc1ccccc1C(=O)O` [ASPIRIN], in the series on Mus musculus, the Activity stood at 50%. This compound yielded an inhibition in vivo at 200 mg/kg in series [1] of 38.8%.

Regarding `CN(C)C(=N)NC(=N)/N=C/c1ccc(N(C)C)cc1`, the Activity in the series with Mus musculus is 10%. For the same compound, at 200 mg/kg the inhibition in vivo in series [1] was 6.2%.

For `CN(C)C(=N)NC(=N)N` [METFORMIN], the concentration in series [2] peaked (Cmax) at 18000 ng/mL. In series [3], the CLz/F is 42.4 mL/min/kg. The half-life (in general, the time needed for the level to fall by half in the phase considered) in series [4] is 3.24 h. In the series with Mus musculus, the Activity is on record as 30%. The AUC(0-inf) (commonly total exposure, with the tail of the curve extrapolated) in series [5] turned out to be 78700 ng·h/mL. Testing at 200 mg/kg in series [1] gave an inhibition in vivo of 18.5%.

`CN(C)C(=N)NC(=N)NS(=O)(=O)CC(F)(F)F`: the Activity in the series with Mus musculus is recorded as 30%. Moreover, in series [1], testing at 200 mg/kg gave an inhibition in vivo of 29.3%.

For `CN(C)C(=N)NC(=N)/N=C/c1cc(O)c(O)c(O)c1`, the Activity in the series on Mus musculus is 0%. The compound further showed an inhibition in vivo at 200 mg/kg in series [1] of 7.1%.

As to `CN(C)C(=N)NC(=N)NS(=O)(=O)CCC(F)(F)F`, in the series on Mus musculus, the Activity came out at 20%. The inhibition in vivo at 200 mg/kg in series [1] is 24.4%.

`CN(C)C(=N)NC(=N)NS(=O)(=O)C(F)(F)C(F)(F)C(F)(F)C(F)(F)F`: in the series with Mus musculus, the Activity was 20%. The compound also came in with an inhibition in vivo at 200 mg/kg in series [1] of 9.2%.

For `CC(=O)NC(=N)NC(=N)N(C)C`, the Activity in the series with Mus musculus stood at 10%. Moreover, in series [1], at 200 mg/kg the inhibition in vivo was 15.4%.

In the case of `CC(C)S(=O)(=O)NC(=N)NC(=N)N(C)C`, the Activity in the series on Mus musculus amounted to 40%. In addition, the inhibition in vivo at 200 mg/kg in series [1] was 28.2%.

`Cc1ccc(C(=O)NC(=N)NC(=N)N(C)C)cc1`: the Activity in the series with Mus musculus turned out to be 20%. In series [1], this compound had an inhibition in vivo at 200 mg/kg of 18.3%.

Turning to `CN(C)C(=N)NC(=N)NC(=O)CCC(=O)O`, the Activity in the series with Mus musculus is reported as 40%. Also, in series [1], the inhibition in vivo at 200 mg/kg stood at 40.4%.

Turning to `CN(C)C(=N)NC(=N)NS(=O)(=O)C(F)F`, in the series with Mus musculus, the Activity stood at 30%. The compound also gave an inhibition in vivo at 200 mg/kg in series [1] of 35.5%.

Consider `CCS(=O)(=O)NC(=N)NC(=N)N(C)C`, for which the Activity in the series on Mus musculus is 20%. Moreover, 200 mg/kg produced 34.3% inhibition in vivo in series [1].

Consider `CN(C)C(=N)NC(=N)NC(=O)C(F)(F)F`, for which the Activity in the series with Mus musculus was found to be 30%. In series [1], the inhibition in vivo at 200 mg/kg is 16.5%.

On to `Cc1ccc(S(=O)(=O)NC(=N)NC(=N)N(C)C)cc1`, for which, in the series with Mus musculus, the Activity was 30%. In series [1], this compound displayed an inhibition in vivo at 200 mg/kg of 16.5%.

For the compound `CN(C)C(=N)NC(=N)NCc1ccccc1`, in the series with Mus musculus, the Activity turned out to be 20%. In addition, the inhibition in vivo at 200 mg/kg in series [1] is 12.1%.

As to `CN(C)C(=N)NC(=N)NC(=O)c1ccccc1`, the Activity in the series with Mus musculus is 20%. The inhibition in vivo at 200 mg/kg in series [1] came out at 14.2%.

As to `CN(C)C(=N)NC(=N)/N=C/c1ccc(O)cc1`, the Activity with Mus musculus was 10%. In series [1], the inhibition in vivo at 200 mg/kg came to 11.5%.

Regarding `CN(C)C(=N)NC(=N)NC(=O)C1CCCCC1`, the Activity with Mus musculus worked out at 20%. Moreover, 200 mg/kg produced 24.1% inhibition in vivo in series [1].

On to `CN(C)C(=N)NC(=N)NC(=O)/C=C/C(=O)O`, for which the Activity in the series on Mus musculus was 20%. The inhibition in vivo at 200 mg/kg in series [1] is 13.5%.
